Test results as given in US20130336988A1, “METHODS FOR TREATING EARLY STAGE OR MILD NEUROLOGICAL DISORDERS” (NEW YORK UNIVERSITY, priority 2010, published 2013).

B1: NGF: mature nerve growth factor (Harlan) (protein, UniProt P01139 122-241, looked up)
Beta-nerve growth factor: SSTHPVFHMGEFSVCDSVSVWVGDKTTATDIKGKEVTVLAEVNINNSVFRQYFFETKCRASNPVESGCRGIDSKHWNSYCTTTHTFVKALTTDEKQAAWRFIRIDTACVCVLSRKATRRG

How the values were obtained:
[1] = tested on: E15 DIV3 mouse hippocampal neurons; experiment: Pretreatment with antibodies or inhibitors before proNGF addition, growth cone / filopodial collapse; assay type: cell-based; details: for effect of pretreatment on proNGF-induced growth cone / filopodial collapse: pretreatment before proNGF for 20 min, 20 μg/ml antibody or control IgG 20 min, 100 nM Gö6976
Procedure: (§1) To assay which pathways are involved in filopodial collapse, 5-10 ng/ml proNGF, 10 ng/ml proBDNF, 25-50 ng/ml BDNF (Peprotech) or 25-100 ng/ml NGF (Harlan) was added to E15 primary hippocampal neurons for 20 min before fixation. In some cases, cells were pretreated with 100 nM K-252a (Calbiochem) for 20 min, 100 nM Gö6976 (Calbiochem) for 1 hour, 5 μM EHT1864 (Sigma) for 30 min or 100 nM ITX3 (ChemBridge Corporation, cat. no. 6007262) for 45 min. To block SorCS2, cells were incubated with 20 μg/ml anti-SorCS2 or control IgG for 20 min on ice before proNGF addition at 37° C.
(§2) DIV3 hippocampal neurons were fixed in 4% paraformaldehyde/20% sucrose for 10 min. The fixative was quenched with 50 mM NH4Cl in PBS for 5 min and cells were permeabilized with 0.1% TritonX-100 in PBS for 2 min. Alternatively, cells were fixed with ice-cold methanol for 5 min. Coverslips were blocked with 10% normal donkey serum, 2% bovine serum albumin and 0.25% fish skin gelatin in Tris-buffered saline for 30 min, incubated with primary antibodies diluted in blocking solution for 30 min, washed three times with Tris-buffered saline/0.25% fish skin gelatin, incubated with secondary antibodies mixed with Hoechst in blocking buffer for additional 30 min, washed and mounted using Mowio1488. Cells were imaged using a LSM510 laser-scanning confocal microscope equipped with a 40× Plan Neofluor NA1.3 DIC oil-immersion objective (Carl Zeiss Microimaging). Images were processed using LSM510 software (Zeiss) and ImageJ (NIH).
(§3) Primary hippocampal and cortical neurons were isolated from E15 C57BL/6 mouse embryos as previously described (PEREIRA, D. B. et al., Journal of Neuroscience 27:4859-4869 (2007)). Briefly, neurons were dissociated by incubation with 0.05% trypsin at 37° C. for 8 min followed by trituration with fire-polished glass Pasteur pipettes. Cells were plated on poly-D-lysine coated dishes and grown in Neurobasal medium containing B27, 0.5 mM glutamine (all Invitrogen) and 10 μM 5-fluorodeoxyuridine. Hippocampal neurons were transfected at DIV2 using Lipofectamine2000 (Invitrogen). For coverslips in a 24-well plate, 0.5 μg plasmid were mixed with 0.5 μl Lipofectamine2000, and for glass bottom dishes, 1.5 μg plasmid were mixed with 1.5 μl Lipofectamine2000. The complexes were added to the cells for 30-45 min, and then neurons were placed back into preconditioned media until analysis the following day. HT1080 cells were grown in DMEM/10% fetal bovine serum (both Invitrogen) and transfected using the AMAXA nucleofector (Lonza) according to manufacturer's instructions. 293FT cells were grown in DMEM/10% fetal bovine serum and transfected with Lipofectamine2000 according to manufacturer's instructions.

[2] = tested on: E15 DIV3 mouse hippocampal neurons; experiment: proNT-induced growth cone collapse in cultured hippocampal neurons (live imaging and immunofluorescence); assay type: cell-based; details: for growth cone collapse caused by the inhibitor alone: DIV3 hippocampal neurons, 5 μM EHT1864 30 min, 100 nM ITX3 45 min
Procedure: as §1, §2
Cells were plated on gridded glass bottom dishes (MatTek Corporation) and imaged at DIV3 in phenol red-free Neurobasal medium (Invitrogen) supplemented with 30 mM HEPES-NaOH, pH7.4 using an Olympus IX71 inverted microscope driven by IPLab software (BD Biosciences) and equipped with a 60× PlanApoN objective (NA 1.42), a Hamamatsu EM-CCD camera and a heated stage maintained at 37° C., or driven by softWoRX software (version 3.7.1, DeltaVision), and equipped with a CoolSnap HQ2 camera (Photometrics) and an environmental chamber maintained at 37° C. Images were taken every 15 seconds. After live imaging cells were fixed, counterstained for p75, located by grid number and examined for p75 expression. All movies were exported and processed using IPLab (BD Biosciences), softWoRX (version 3.7.1, DeltaVision) and ImageJ (NIH) software. Filopodia length and speed were both analyzed using ImageJ (NIH) software. For this, two times ten consecutive frames, spaced 5-10 min apart, were analyzed before and again after treatment. In the length analysis, a line was drawn along an individual filopodium and measured at every time point, and the measurements were averaged before and after treatment. For the speed analysis, the filopodial tip was tracked using the ImageJ Manual Tracking plugin. Up to four individual filopodia were analyzed per movie, and a minimum of four movies taken from separate experiments were analyzed per condition.
as §3, with “HT1080 cells were grown in DMEM/10% fetal bovine serum (both Invitrogen) and transfected using the AMAXA nucleofector (Lonza) according to manufacturer's instructions. 293FT cells were grown in DMEM/10% fetal bovine serum and transfected with Lipofectamine2000 according to manufacturer's instructions.” left out

[3] = tested on: Rac; experiment: Rac activity assay (GST-Pak-CRIB pull-down of activated Rac); assay type: cell-based, mouse; details: primary neuronal cultures
Procedure: Rac activity assays were performed as described previously (NEUBRAND, V. E. et al., Journal of Cell Science 123:2111-2123 (2010)). […] Cells were lysed in lysis buffer supplemented with 10 mM MgCl, lysates were cleared by centrifugation at 9000 g for 1 min, and cleared lysates were incubated with GST or GST-Pak-CRIB beads for 30 min at 4° C. Beads were washed and isolated active Rac was analyzed by Western blot. As a control, extra lysates were incubated with 0.1 mM GDP or 0.1 mM GTPγS for 30 min at room temperature before incubation with GST-Pak-CRIB beads. Western blots were analyzed by densitometry using ImageJ software, and isolated active Rac was normalized to the input.
GST and GST-Pak-CRIB proteins were expressed in E. coli BL21DE3 cells at 25° C. for 3 hours. Bacteria were disrupted by incubation with PBS supplemented with lysozyme on ice for 30 min and subsequent addition of 1 mM MgCl2, 0.1% TritonX-100 and 0.1 mg/ml DNAse for an additional 30 min. Bacterial lysates were cleared by centrifugation for 5 min at 3000 g and cleared lysates were incubated with glutathione sepharose. Beads were washed and the purity of the recombinant proteins was analyzed by Coomassie blue staining. 20 μg of sepharose coupled purified protein was used per reaction.

Molecule	effect of pretreatment on proNGF-induced growth cone / filopodial collapse [1]	growth cone collapse caused by the inhibitor alone [2]	other results
Cn1c2ccccc2c2c3c(c4c5ccccc5n(CCC#N)c4c21)CNC3=O [Gö6976]	exposure to proNGF failed to induce collapse of actin-rich structures	–	effect of the agent alone on neuronal / actin morphology ([1]; agent alone, without proNGF): had no effect on actin morphology
20-28: small peptide inhibitor 20-28 (of PKC) (FARKGALRQ; UniProt P17252 20-28, looked up, fragment)	exposure to proNGF failed to induce collapse of actin-rich structures	–	–
C[C@@H](N)[C@H]1CC[C@H](C(=O)Nc2ccncc2)CC1 [Y-27632, reference compound]	nor did they interferen with proNGF-mediated growth cone collapse	neither induced growth cone collapse	–
O=c1cc(CN2CCOCC2)occ1OCCCCCSc1ccnc2cc(C(F)(F)F)ccc12 [EHT 1864, reference compound]	–	led to the collapse of growth cone structures	Rac activity after inhibitor treatment [3]: striking decrease in Rac activity
C3 transferase [reference compound]	nor did they interferen with proNGF-mediated growth cone collapse	neither induced growth cone collapse	–
Cc1cc(/C=c2/sc3nc4ccccc4n3c2=O)c(C)n1-c1ccccc1 [ITX3, reference compound]	–	led to the collapse of growth cone structures	Rac activity after inhibitor treatment [3]: striking decrease in Rac activity
B1	–	–	growth cone collapse ([2]; p75NTR-positive cells, 20 min exposure, 10 ng/ml proNGF, 10 ng/ml proBDNF with K252a, 5 ng/ml NGF): nor did NGF lead to actin rearrangements
